# In PubChem BioAssay (NCI):
#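 How tested: cells in 96-well plates exposed to compound for 48 hours at five concentrations. Here, GI50 denotes the concentration required for 50% inhibition of growth. TGI is the concentration that stops growth completely.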
# Key:
# Test in all cases: NCI anticancer screen, dose series, 48 h
# OVCAR-4 ovarian = system: OVCAR-4 ovarian
# SK-OV-3 ovarian = system: SK-OV-3 ovarian
# PC-3 prostate = system: PC-3 prostate
# KM12 colon = system: KM12 colon
# DU-145 prostate = system: DU-145 prostate
# A549 NSCLC = system: A549 NSCLC
# SR leukemia = system: SR leukemia
# IGROV1 ovarian = system: IGROV1 ovarian
# NCI-H226 lung = system: NCI-H226 lung
# MDA-MB-435 = system: MDA-MB-435
SMILES,GI50 (OVCAR-4 ovarian),TGI (OVCAR-4 ovarian),GI50 (SK-OV-3 ovarian),TGI (SK-OV-3 ovarian),GI50 (PC-3 prostate),TGI (PC-3 prostate),GI50 (KM12 colon),TGI (KM12 colon),GI50 (DU-145 prostate),TGI (DU-145 prostate),GI50 (A549 NSCLC),TGI (A549 NSCLC),GI50 (SR leukemia),TGI (SR leukemia),GI50 (IGROV1 ovarian),TGI (IGROV1 ovarian),GI50 (NCI-H226 lung),TGI (NCI-H226 lung),GI50 (MDA-MB-435),TGI (MDA-MB-435)
COc1ccc(/C=C/C(=O)/C=C(/C=C/c2ccc(OC)c(OC)c2)OB(F)F)cc1OC,1.86 µM,> 100 µM,2.98 µM,12.1 µM,1050 nM,7.51 µM,1.78 µM,3.95 µM,1.12 µM,2.84 µM,2.24 µM,7.62 µM,287 nM,1.69 µM,0.486 µM,4.41 µM,2 µM,6.88 µM,0.522 µM,3.89 µM
O=C(O)CSCC(=O)c1ccccc1,–,> 100 µM,–,> 100 µM,–,> 100 µM,–,> 100 µM,–,> 100 µM,–,> 100 µM,–,> 100 µM,–,> 100 µM,–,> 100 µM,–,> 100 µM
O=c1oc2ccccc2c(Cl)c1Cl,6.76 µM,19.6 µM,13.3 µM,87.3 µM,7510 nM,24.5 µM,3.61 µM,13.7 µM,3.02 µM,12.1 µM,15.5 µM,32.2 µM,2290 nM,65.8 µM,–,–,10 µM,24.5 µM,3.32 µM,11.4 µM
O=C(Nc1cccc(NS(=O)(=O)c2ccc(F)cc2)c1)c1ccc(-c2ccccc2)cc1,3.72 µM,> 100 µM,4.78 µM,38.5 µM,2810 nM,32.6 µM,3.46 µM,15.6 µM,3.96 µM,> 100 µM,3.34 µM,> 100 µM,2510 nM,10.1 µM,4.38 µM,64.9 µM,3.22 µM,24.3 µM,3.26 µM,13.7 µM
O=C(O)C1CCCN1Cc1c[nH]c2ccccc12 (configuration not stated),–,> 100 µM,–,> 100 µM,–,> 100 µM,–,> 100 µM,–,> 100 µM,–,> 100 µM,–,> 100 µM,–,> 100 µM,–,> 100 µM,–,> 100 µM
Nc1nc(SCC(=O)O)[nH]c(=O)c1N,–,> 100 µM,–,> 100 µM,–,> 100 µM,–,> 100 µM,–,> 100 µM,–,> 100 µM,–,77.7 µM,–,> 100 µM,–,> 100 µM,–,> 100 µM
CC(C)SC1SCC2C(=O)N(C)C3(CC3C)C(=O)OCC(NC(=O)c3nc4ccccc4cc3O)C(=O)NC(C)C(=O)N(C)C1C(=O)N(C)C1(CC1C)C(=O)OCC(NC(=O)c1nc3ccccc3cc1O)C(=O)NC(C)C(=O)N2C (configuration not stated),–,< 0.0001 µM,–,4.92 µM,–,< 0.0001 µM,–,< 0.0001 µM,–,> 100 µM,–,17 µM,–,< 0.0001 µM,–,–,–,< 0.0001 µM,–,< 0.0001 µM
Cc1c(C(=O)N/N=C/c2ccc(O)cc2)nnn1-c1ccnc2c(C(F)(F)F)cccc12,5.09 µM,> 100 µM,27.2 µM,76.7 µM,> 100000 nM,> 100 µM,> 100 µM,> 100 µM,> 100 µM,> 100 µM,> 100 µM,> 100 µM,44100 nM,> 100 µM,> 100 µM,> 100 µM,36.9 µM,> 100 µM,> 100 µM,> 100 µM
COc1cccc(-c2nc(-c3ccc(NS(=O)(=O)c4ccccc4)cc3)[nH]c2-c2ccnc(Br)c2)c1,3.84 µM,> 100 µM,3.04 µM,> 100 µM,2390 nM,16.9 µM,2.65 µM,8.74 µM,3.69 µM,> 100 µM,3.11 µM,> 100 µM,2850 nM,> 100 µM,3.84 µM,> 100 µM,2.91 µM,> 100 µM,2.51 µM,9.21 µM
CCOC(=O)Oc1c(OC)cc(C(=O)c2ccc(OC)c(OC(=O)CCl)c2OC)cc1OC,6.34 µM,> 100 µM,2.58 µM,> 100 µM,2830 nM,> 100 µM,0.543 µM,> 100 µM,1.83 µM,> 100 µM,3.39 µM,> 100 µM,459 nM,> 100 µM,3.36 µM,> 100 µM,4.38 µM,37.9 µM,0.239 µM,0.773 µM
C=C1C(=O)OC2C1C(OC(=O)/C(C)=C/C)CC(O)(CCl)C1C(OC(C)=O)C=C(C)C21O (configuration not stated),–,33.5 µM,–,> 100 µM,–,30.8 µM,–,39.5 µM,–,29 µM,–,> 67.3 µM,–,26.1 µM,–,30 µM,–,> 61.3 µM,–,> 51.2 µM
O=c1oc2ccccc2cc1-c1ccc([N+](=O)[O-])cc1,–,> 100 µM,–,> 100 µM,–,> 100 µM,–,> 100 µM,–,> 100 µM,–,> 100 µM,–,> 100 µM,–,> 100 µM,–,> 100 µM,–,> 100 µM
COC(=O)c1ccc(-c2nc3cc(F)c(F)cc3nc2C#N)cc1,4.71 µM,32.3 µM,9.77 µM,17.2 µM,11700 nM,26.6 µM,31.4 µM,50 µM,8.7 µM,17.3 µM,10.8 µM,25.6 µM,1250 nM,2.77 µM,9.62 µM,20.4 µM,9.39 µM,21.4 µM,8.21 µM,16.4 µM
COC(=O)/C=C1\SC(=Nc2ccc(C(F)(F)F)cc2)N(CCc2c[nH]c3ccccc23)C1=O,1.61 µM,3.05 µM,2.05 µM,4.06 µM,1620 nM,3.32 µM,1.74 µM,3.62 µM,1.87 µM,4.21 µM,2.01 µM,4.8 µM,613 nM,9.31 µM,1.82 µM,3.59 µM,1.87 µM,3.62 µM,1.56 µM,3.03 µM
O=C(Oc1cccc(Nc2ncnc3ccccc23)c1)c1ccccc1Cl,48.9 µM,> 100 µM,66.8 µM,> 100 µM,17800 nM,45.9 µM,14.4 µM,31.4 µM,22.3 µM,> 100 µM,25.9 µM,> 100 µM,65700 nM,> 100 µM,14.9 µM,> 100 µM,16.3 µM,43.8 µM,41.6 µM,> 100 µM
